In US20250275940A1, “PTEROSTILBENE AND SILIBININ FOR PREVENTING, AMELIORATING OR REDUCING RADIATION-INDUCED DISEASES” (UNIVERSITAT DE VALÈNCIA, priority 2021, published 2025):
Like-named read-outs stand apart in the source and are kept apart here.

Key:
[1] = system: Swiss albino mice subjected to whole-body γ irradiation; experiment: Survival of mice subjected to whole-body γ irradiation (LD50/30); assay type: in vivo; details: 6 days after γ radiation (LD50/30), compounds administered orally, FIG. 2A
Description: Swiss albino mice (male, 9-10 weeks old, 30-32 g) were obtained from Charles River Laboratories (Wilmington, MA). This strain is among the most common used in radiation studies (Williams 2010). Mice were fed with a nutritionally complete diet (standard diet, SD) before irradiation. This was A03 from Panlab (Barcelona, Spain), which has 3,200 kcal/kg and the following nutritional composition: crude protein, 23.5%; crude fat, 4.3%; crude fiber, 3.7%; and carbohydrates, 51.1%; vitamins and minerals were provided as in the NIH-7 open formula for rat and mouse. This diet meets the dietary allowances recommended for adult mice by the American Institute of Nutrition. The animals were fed ad libitum and kept in individual metabolic cages, in which body weight and food ingestion were monitored daily. The animal room was maintained at 22° C. on a 12 h light/12 h dark cycle. Ad libitum intake of drinking water was also allowed. Care of irradiated mice followed the recommendation of the Robert Wood Johnson Medical School (Piscataway, NJ) for mouse total body irradiation (policy 15), which includes: a) use of antibiotics in the drinking water (134 mg ampicillin/kg/day, 40 mg baytril/kg/day, and 220/42 mg sulfamethoxazole/trimethoprim/kg/day), b) making drinking water readily available, c) Napa nectar Systems Engineering Lab Group Inc., Napa, CA) provided on the bottom of the cage during the first 14 days and replaced daily, d) provision of softened food served in a small Petri dish on the cage floor, e) completely sterile environment (cage, food, and water) to avoid potential immunosuppression-associated infections. A free-standing wheel inside the cage was also included to facilitate the physical exercise of the animals. All experiments were started at 10.00 h to minimize possible circadian variations. Procedures involving animals were in compliance with international laws and policies (EEC Directive 86/609, OJ L 358. 1, Dec. 12, 1987; and NIH Guide for the Care and Use of Laboratory Animals, NIH Publ. No. 85-23, 1985). Mice were subjected to g-radiation (^137Cs) (total body irradiation, TBI) in a BIOBEAM 8000 (Gamma-Service Medical GmbH, Leipzig, Germany). Single fraction radiotherapy, at total doses ranging from approx. 5.0 to 10.0 Gy, was administered at a rate of approx. […]. The irradiation distance from the source was limited to 12 cm. Radiation dosimetry was controlled using alanine dosimeters from Bruker (Billerica, MA) with dosimetry variation of +/−0.09 Gy. […] NR (nicotinamide riboside, 3-aminocarbonyl-1-b-D-ribofuranosyl-pyridinium, Elysium Health, Inc., New York, NY) was dissolved in vaccination-grade water, and the pH of the solution neutralized (pH 7.0) before oral administration (185 mg/kg×day, Obrador 2020). FSL-1 (InvivoGen, San Diego, CA) was resuspended in sterile vaccination-grade water, and administered IP (0.25 mg/kg×day, the volume administered was of […] depending on the weight of the mouse, as recommended by Kurkjian 2017). Pharmaceutical grade amifostine (Ethyol) was obtained from Cumberland Pharmaceuticals (Nashville, TN) as 500 mg sterile lyophilized powder vial, and reconstituted with physiological saline prior to use.
First, the effects of γ radiation and mice survival were studied. […] Mice received whole-body γ radiation (one single dose; ^137Cs, 0.5-0.6 Gy/min; Biobeam 8000, GSM GmbH). One Gy=absorption of 1 J of energy/kg of matter.
Next, the thirty-days survival of mice treated with γ rays (LD50/30) and pterostilbene (PT) was analysed (FIG. 1B).

[2] = Plasma and extravascular levels of pterostilbene after oral administration; assay type: in vivo; details: mice, 200 mg Pter/kg b.w. oral
Description: Plasma and extravascular levels of pterostilbene after its oral administration to mice were studied. Mice were treated with 200 mg Pter/kg b.w. A group of 4-5 animals was sacrificed per each time point. Pter was dissolved in 2-hydroxypropyl-b-cyclodextrin, then suspended in 0.3% carboxymethylcellulose. Nondetectable=n.d. * P<0.1 comparing data obtained at 10-1440 min versus those found at 5 min.

[3] = PT, SIL and NAD+ levels in circulating blood; details: treated and irradiated mice, FIG. 10A
Description: Briefly, samples were analyzed through HPLC (Ultimate 3000, Thermo Fisher Scientific) and MS/MS (Waters TQ detector triple quadrupole) systems on a Hypurity™ C18 column (50×4.6 mm) using an injection volume of 5 μL. The mobile phases consisted of water (A) and acetonitrile (B). […] MS/MS data acquisition was performed under negative electrospray ionization mode. […] The fragmentary voltage was 150 V, and the collision energy 15 eV. Tissue sample preparation was as described for determination of PTER levels (above).
Whole-blood samples (0.5 ml) were collected in sodium citrate tubes at 4° C. Then a whole-blood aliquot of 0.1 ml was transferred to a cryovial containing 0.9 ml of 0.5 M ice-cold perchloric acid to lyse all blood cells. Samples were centrifuged at 10,000 g×10 min (4° C.). Supernatants were stored at −80° C. until analyzed.

[4] = system: Swiss albino mice subjected to whole-body γ irradiation; experiment: Survival of mice subjected to whole-body γ irradiation (LD50/30); assay type: in vivo; details: dose of 100 mg/kg, orally once per day, 5 days before and 2 days after γ irradiation (7.2 Gy), FIG. 1B
[5] = background statement; cited from earlier work
[6] = Swiss albino, mouse, brain, 200 mg/kg b.w., read-out: Pter in Brain
[7] = Swiss albino, mouse, kidney, 200 mg/kg b.w., read-out: Pter in Kidney
[8] = Swiss albino, mouse, liver, 200 mg/kg b.w., read-out: Pter in Liver
[9] = Swiss albino, mouse, lung, 200 mg/kg b.w., read-out: Pter in Lung
[10] = Swiss albino, mouse, plasma, 200 mg/kg b.w., read-out: Pter in Plasma

SMILES: COc1cc(/C=C/c2ccc(O)cc2)cc(OC)c1 [PT, 3,5-dimethoxy-4′-hydroxystilbene]
- survival [1]: around 100%
- concentration at 5 min [2, 6]: 2 ± 1 µM
- concentration at 10 min [2, 6]: 6 ± 2 µM
- concentration at 30 min [2, 6]: 10 ± 3 µM
- concentration at 60 min [2, 6]: 24 ± 7 µM
- concentration at 120 min [2, 6]: 14 ± 4 µM
- concentration at 240 min [2, 6]: 8 ± 3 µM
- concentration at 480 min [2, 6]: 3 ± 1 µM
- concentration at 5 min [2, 7]: 1 ± 0.5 µM
- concentration at 10 min [2, 7]: 4 ± 2 µM
- concentration at 30 min [2, 7]: 6 ± 3 µM
- concentration at 60 min [2, 7]: 10 ± 4 µM
- concentration at 120 min [2, 7]: 8 ± 2 µM
- concentration at 240 min [2, 7]: 2 ± 0.5 µM
- concentration at 5 min [2, 8]: 3 ± 1 µM
- concentration at 10 min [2, 8]: 8 ± 3 µM
- concentration at 30 min [2, 8]: 11 ± 3 µM
- concentration at 60 min [2, 8]: 17 ± 5 µM
- concentration at 120 min [2, 8]: 12 ± 4 µM
- concentration at 240 min [2, 8]: 7 ± 2 µM
- concentration at 480 min [2, 8]: 1 ± 0.5 µM
- concentration at 5 min [2, 9]: 7 ± 2 µM
- concentration at 10 min [2, 9]: 15 ± 6 µM
- concentration at 30 min [2, 9]: 23 ± 5 µM
- concentration at 60 min [2, 9]: 35 ± 8 µM
- concentration at 120 min [2, 9]: 21 ± 4 µM
- concentration at 240 min [2, 9]: 12 ± 3 µM
- concentration at 480 min [2, 9]: 2 ± 1 µM
- concentration at 5 min [2, 10]: 5 ± 2 µM
- concentration at 10 min [2, 10]: 18 ± 4 µM
- concentration at 30 min [2, 10]: 55 ± 9 µM
- concentration at 60 min [2, 10]: 98 ± 17 µM
- concentration at 120 min [2, 10]: 46 ± 12 µM
- concentration at 240 min [2, 10]: 21 ± 6 µM
- concentration at 480 min [2, 10]: 14 ± 5 µM
- concentration at 720 min ([2]; Swiss albino, mouse, plasma, 200 mg/kg b.w., 720 min): 1 ± 0.5 µM
- time after administration at which Pterostilbene levels peak ([2]; all tissues studied): 60 min
- PT levels in circulating blood, 30 min vs 120 min [3]: higher 30 min after
- effect on improving survival (60 days) among doses [4]: best effect on improving survival
- potency as antifungal agent relative to Resveratrol [5]: 60-100 times
